Entries after “also recorded” stand apart in the source; their conditions may differ. Like-named read-outs stand apart in the source and are kept apart here.
Experiments:
Type in all cases: in vivo
mice [1] = experiment: Aconitine-induced arrhythmia in mice
Text: Aconitine was used to induce arrhythmia and a saline solution served as the control for a third group.
A dosage in the same range as that previously set forth for cupreidine was utilized with mice for the compounds 6-benzylcinchonine and 6'-allylcinchonine. Aconitine was used to induce arrhythmia and a saline solution was used with the control group.

mice [2] = experiment: Lethal dose in mice (dose probit curve); details: result in words
Description: (§1) Mice were treated at varying dosage levels for both quinidine and cupreidine. A dose probit curve was generated for the effective dose and lethal dose of each compound. The respective ED50 and LD50 values were derived from those curves using techniques well known to those skilled in the art.

[3] = Lethal dose in mice (dose probit curve); details: mouse, in vivo; mice; from dose probit curve
Description: as §1

mice [4] = experiment: Antiarrhythmic effective dose in mice (dose probit curve); details: for ED50: Mus musculus
Description: as §1

[5] = Table III, dosage in the same range as for cupreidine, saline control 160. ± 5
[6] = Table III, dosage in the same range as for cupreidine, saline control 186. ± 6
[7] = Table II, intraperitoneal, cupreidine about 20.6 to about 26.8 mg/kg, quinidine 19.5-25.8 mg/kg, saline control 193. ± 11

| Compound | Onset of Arrhythmia (time in seconds) (mice [1]; [5]) [seconds] | Onset of Ventricular Tachycardia (time in seconds) (mice [1]; [6]) [seconds] | toxicity relative to quinidine (mice [2]) | LD50 [3] [mg/kg] | ED50 (mice [4]) [mg/kg] | effectiveness as an antiarrhythmic agent, relative to quinidine (mice [4]; result in words) | Onset of Arrhythmia (time in seconds) (mice [1]; Table II, intraperitoneal, cupreidine about 20.6 to about 26.8 mg/kg, quinidine 19.5-25.8 mg/kg, saline control 153. ± 5) [seconds] | Onset of Ventricular Tachycardia (time in seconds) (mice [1]; [7]) [seconds] | ED50 (mice [4]; mice, from dose probit curve, read-out: ED50) [mg/kg] |
| --- | --- | --- | --- | --- | --- | --- | --- | --- | --- |
| C=CCOc1ccc2nccc([C@H](O)[C@H]3C[C@@H]4CCN3C[C@@H]4C=C)c2c1 [6'-Allylcinchonine, 6'-Allyloxycinchonine] | 215. ± 9 | 261. ± 11 |  |  |  |  |  |  |  |
| C=C[C@H]1CN2CC[C@H]1C[C@@H]2[C@@H](O)c1ccnc2ccc(OCc3ccccc3)cc12 [6-Benzylcinchonine, 6'-Benzyloxycinchonine] | 195. ± 8 | 217. ± 6 |  |  |  |  |  |  |  |
| C=CC1CN2CCC1CC2C(O)c1ccnc2ccc(O)cc12 (stereo not shown) [Cupreidine, 6'-hydroxycinchonine] |  |  | greatly reduced toxicity | 304 | 23.5 | equal or superior to quinidine; also recorded: comparable to that of quinidine | 198. ± 8 | 250. ± 22 |  |
| C=C[C@H]1C[N@@]2CC[C@H]1C[C@@H]2[C@@H](O)c1ccnc2ccc(OC)cc12 [Quinidine, reference compound] |  |  |  | 202 |  |  |  | 294. ± 44 | 22.4 |
